Read-outs that look alike come from different tables or passages of the source.
Experiments:
PAR4 = target: T1, PAR4 (Homo sapiens, UniProt Q96RI0); experiment: Human platelet activity assay, flow cytometry, γ-thrombin activation; type: cell-based; set-up: endogenous in cells; host or cells: washed human platelets from healthy volunteers; settings: human platelets, 100 nM γ-thrombin
T1 sequence (Q96RI0 18-385): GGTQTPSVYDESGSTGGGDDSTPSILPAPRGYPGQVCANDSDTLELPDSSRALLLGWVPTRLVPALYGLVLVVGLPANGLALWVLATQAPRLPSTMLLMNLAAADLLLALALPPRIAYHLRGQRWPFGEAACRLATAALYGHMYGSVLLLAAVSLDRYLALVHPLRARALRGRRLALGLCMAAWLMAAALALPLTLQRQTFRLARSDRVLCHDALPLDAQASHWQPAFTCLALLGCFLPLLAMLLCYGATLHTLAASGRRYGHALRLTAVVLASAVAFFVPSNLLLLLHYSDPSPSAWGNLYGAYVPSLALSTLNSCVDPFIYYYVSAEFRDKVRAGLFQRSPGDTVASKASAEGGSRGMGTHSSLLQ
Description: To test the antagonistic effect of the compounds on PAR4, a flow cytometry assay of human platelets was employed. Each compound was screened at 10 μM in human platelets using flow cytometry for GPIIbIIIa activation (PAC1) and P-selectin (CD62p) expression as previously described.[4] Activation of GPIIbIIIa allows interaction with divalent fibrinogen or multivalent von Willebrand factor, leading to platelet aggregation.[41] PAR4 stimulation also triggers α-granule secretion containing P-selectin.[5] […] Platelets were treated with each test compound or vehicle control DMSO before activating with γ-thrombin (100 nM) or PAR4 agonist peptide mimetic (200 μM, “PAR4-AP” AYPGKF) for 30 min. γ-thrombin activates PAR4 but not PAR1.[42]
Activation of washed human platelets was monitored by flow cytometry for the detection of PAC1 (GPIIbIIIa activation) and CD62p (P-selectin expression) binding as previously described.[4] Human platelets were obtained from healthy volunteers. The Vanderbilt University Internal Review Board approved these studies. Informed consent was obtained from all individuals prior to the blood draw. 10 mL of whole blood was collected into 0.32% Na citrate. Platelet-rich plasma was collected after room-temperature centrifugation at 1100 rpm for 15 min on a Thermo Forma 400 centrifuge (Thermo Fisher, Waltham, MA). 1/10 volume of acid citrate dextrose (ACD) buffer was added to the collected supernatant and incubated for 10 min. After centrifugation at 2400 rpm for 10 min, the platelet pellet was resuspended in 1 mL Tyrode’s buffer (“TBB”: 15 mM HEPES, 0.33 mM NaH2PO4, pH 6.4, 138 mM NaCl, 2.7 mM KCl, 1 mM MgCl2, 5.5 mM dextrose, 0.1% bovine serum albumin). Platelets were collected, counted on a Z1 Coulter Particle Counter (Beckman Coulter, Brea, CA), and diluted in TBB to 1.5 × 10^7 platelets/mL. 60 uL of platelets were aliquoted to each tube and preincubated with 40 μL of TBB with antibodies PAC1 FITC (Becton Dickinson, Franklin Lakes NJ) and P-selectin PE (Becton Dickinson) and either test compound antagonist or DMSO vehicle control for 20 min. Platelets were then activated with 100 nM γ-thrombin or other agonists for 30 min. Samples were then fixed by adding 100 μL of 2% paraformaldehyde. After 30 min, samples were diluted by adding 300 μL of phosphate-buffered saline (PBS) and stored at 4C. Data were collected on a three-laser BD LSRFortessa (Becton Dickinson) and analyzed with FlowJo software (FlowJo LLC, Ashland, OR). The mean fluorescence intensity (geometric) of PE and FITC was determined from 30,000 events after compensation correction. Data were normalized to vehicle (DMSO) controls.
Compounds were screened for inhibition activity against human PAR4 using 100 nM γ-thrombin or 200 μM PAR4-AP in a single-point assay (10 μM test compound).

mouse PAR4 = target: T2, mouse PAR4 (Mus musculus, UniProt O88634); experiment: Mouse platelet activity assay, flow cytometry, γ-thrombin activation; type: cell-based
T2 construct: washed mouse platelets were prepared by collecting cardiac puncture blood; endogenous in cells; host or cells: washed mouse platelets (cardiac puncture blood)
T2 sequence (O88634 17-396): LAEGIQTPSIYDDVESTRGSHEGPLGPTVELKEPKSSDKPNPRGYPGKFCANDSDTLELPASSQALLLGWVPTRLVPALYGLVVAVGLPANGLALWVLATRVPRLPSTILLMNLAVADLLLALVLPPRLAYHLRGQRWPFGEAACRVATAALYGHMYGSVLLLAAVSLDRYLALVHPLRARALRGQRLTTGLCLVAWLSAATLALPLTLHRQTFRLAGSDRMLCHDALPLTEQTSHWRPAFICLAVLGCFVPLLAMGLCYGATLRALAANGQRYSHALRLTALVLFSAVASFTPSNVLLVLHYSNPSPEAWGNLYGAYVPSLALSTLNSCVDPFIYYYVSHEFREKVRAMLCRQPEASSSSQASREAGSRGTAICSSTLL
Description: For mouse PAR4 activity, washed mouse platelets were prepared by collecting cardiac puncture blood with 200 μL of 20 U/mL heparin. Following centrifugation at 1000 rpm for 15 min, plasma and buffy coat were collected into a separate tube and spiked with apyrase and PGE1. After centrifuging at 1000 rpm for 8 min, the platelet-rich plasma was transferred to another tube and centrifuged at 2200 rpm for 10 min to pellet the platelets. Platelets were resuspended in TBB + apyrase + PGE1. Platelets were counted and diluted in TBB to a final concentration of 2 × 10^7 platelets/mL. 50 μL of platelets were aliquoted to each tube preincubated with 50 μL of TBB with antibodies for mouse GPIIbIIIa and P-selectin (Emfret, Eibelstadt Germany) and either test compound antagonist or DMSO control. Platelets were activated with 316 nM γ-thrombin for 30 min. Samples were then fixed with 100 μL of 2% paraformaldehyde for 20 min and diluted with 300 μL of PBS. Flow cytometry counts are measured as for human platelets on a three-laser BD LSRFortessa (Becton Dickinson) and analyzed with FloJo software.

[1] = Plasma protein binding, human plasma; type: in vitro ADME; settings: pH 7.4, read-out: human PPB fu
[2] = Microsomal stability, human liver microsomes; type: in vitro ADME
Description: The metabolic stability of each compound was investigated in mouse and human hepatic microsomes using substrate depletion methodology (% parent compound remaining). Prior to use, microsomes were removed from the freezer and allowed to thaw in a 37 °C water bath before being placed on wet ice.
In separate 96-well plates for each time point, a mixture of 0.1 M potassium phosphate-buffered (pH 7.4), 3 mM MgCl2, and 2.5 mg/mL microsomes were prewarmed at 37 °C for 5 min. Following the preincubation, a 1 μM test compound and 1 mM NADPH (for 3, 7, 15, 25, or 45 min time points) or buffer (for 0 min time point) were added to initiate the reaction. Under standard conditions, reactions were initiated with the addition of NADPH. To delineate the contribution of esterases, some experiments were initiated by the addition of substrate in the presence or absence of NADPH. Plates were incubated at 37 °C under ambient oxygenation. At the respective times, each plate’s reaction was precipitated by the addition of 2 volumes of ice-cold acetonitrile containing an internal standard (carbamazepine, 50 nM). The plates were centrifuged at 4000 rcf (4 °C) for 5 min. The resulting supernatants were transferred and diluted 1:1 (supernatant:water) into new 96-well plates in preparation for LC/MS/MS analysis. Each compound was assayed in triplicate within the same 96-well plate. The in vitro half-life (t1/2, min, eq 1), intrinsic clearance (CLint, mL/min/kg, eq 2), and subsequent predicted hepatic clearance (CLhep, mL/min/kg, eq 3) were determined employing the following equations [drawing 1] 1 [drawing 2] 2 [drawing 3] 3 The estimated percent contribution to metabolism was calculated from the percent substrate lost plots generated from metabolic incubations initiated with the addition of a test compound. Calculations compared the area under the curve (AUC) from conditions in the presence and absence of NADPH and buffer-only (control) conditions (eqs 4 and 5). AUC was calculated by using the trapezoidal method [drawing 4] 4 [drawing 5] 5
The analysis of in vitro samples from microsomal stability or plasma protein binding experiments was determined by employing LCMS/MS with an electrospray ionization-enabled 5500 Sciex instrument (Sciex, Foster City, CA) that was coupled to Agilent HPLC pumps and an autosampler (Agilent Technologies, Santa Clara, CA). Analytes were separated by gradient elution using a Kinetex C18 column (2.1 mm × 50 mm, 5 μm; Phenomenex, Torrance, CA) warmed to 35 °C. Mobile phase A was 0.5% formic acid in water, and mobile phase B was 0.5% formic acid in acetonitrile. […] The total run time was 2.8 min, and the HPLC flow rate was 0.5 mL/min. Mass spectral analyses were performed using multiple reaction monitoring, with transitions and voltages specific for each analyte using a Turbo Ion Spray source (source temperature of 500 °C) in positive ionization mode (5.0 kV spray voltage). Multiple reaction monitoring transitions were the following: 6110B8 (m/z 345.02 → 149.03, DP = 31; EP = 10; CE = 37 and CXP = 14), 6G3R (m/z 421.06 → 225.12, DP = 91; EP = 10; CE = 39 and CXP = 12), 5D22 (m/z 309.068 → 211.16, DP = 131; EP = 10; CE = 29 and CXP = 12), and carbamazepine (m/z 237 → 194, DP = 96; EP = 10; CE = 25 and CXP = 8). Data were analyzed using OS Sciex Analyst 1.5.1 (SCIEX, Framingham, MA), Graphpad Prism 10.1.0 (GraphPad Software, Boston, Massachusetts), and Microsoft Excel version 2310 (Microsoft, Redmond, WA).

[3] = set-up: method as in PMID 35758258, PMID 23222541; settings: phase I, healthy participants; cited from earlier work
[4] = GPIIbIIIa activation (PAC1), read-out: Human Platelets PAC1 IC50
[5] = P-selectin (CD62p), read-out: Human Platelets P-Sel IC50
[6] = mouse platelets, 316 nM γ-thrombin, GPIIbIIIa (JonA), read-out: Mouse Platelets JonA IC50
[7] = mouse platelets, 316 nM γ-thrombin, P-selectin, read-out: Mouse Platelets P-Sel IC50

IC50 (PAR4; [4]) | IC50 (PAR4; [5]) | IC50 (mouse PAR4; [6]) | IC50 (mouse PAR4; [7]) | fraction unbound at 4 h [1] | CLint scaled at 1 µM ([2]; pH 7.4, human liver microsomes, in vitro, reaction started with NADPH) | human CLhep ([2]; predicted hepatic clearance from human liver microsomes) | IC50 (mouse PAR4; Table 4 summary, read-out: mouse PAR4 IC50) | SMILES | safety and tolerability [3]
450 nM | 603 nM | 1110 nM | 1160 nM |  |  |  |  | O=C(Nc1n[nH]c(-c2ccccc2)n1)c1nn(-c2ccccc2)c2c1CCCC2 [Compound 29] | 
606 nM | 847 nM | 1090 nM | 1630 nM |  |  |  |  | CC(C)c1cc(C(=O)Nc2n[nH]c(-c3c(F)cccc3F)n2)nn1C [Compound 11] | 
923 nM | 1390 nM | 1190 nM | 1140 nM |  |  |  |  | Cc1n[nH]c(NC(=O)c2nn(-c3cccc(F)c3)c3c2CCC3)n1 [Compound 19] | 
3250 nM | 4780 nM |  |  |  |  |  |  | Cc1n[nH]c(NC(=O)c2nn(-c3ccc(F)cc3)c3c2CCC3)n1 [Compound 21] | 
 |  | 296 nM | 345 nM | 0.006 | 416 mL/min/kg | 20 mL/min/kg | 296 nM | O=C(Nc1n[nH]c(-c2cccc(OC(F)F)c2)n1)c1nn(-c2ccccc2)c2c1CCCC2 [Compound 33] | 
495 nM | 580 nM | 672 nM | 807 nM |  |  |  |  | CCc1cc(C(=O)Nc2n[nH]c(-c3c(F)cccc3F)n2)nn1C [Compound 15] | 
460 nM | 569 nM | 1140 nM | 1180 nM |  |  |  |  | Cn1nc(C(=O)Nc2n[nH]c(-c3ccc(C#N)cc3)n2)cc1C1CC1 [Compound 16] | 
152 nM | 208 nM | 367 nM | 368 nM |  |  |  |  | O=C(Nc1n[nH]c(-c2cccc(C(F)(F)F)c2)n1)c1nn(-c2ccccc2)c2c1CCCC2 [Compound 27] | 
392 nM | 523 nM | 958 nM | 1130 nM |  |  |  |  | O=C(Nc1n[nH]c(C2CC2)n1)c1nn(-c2ccccc2)c2c1CCC2 [Compound 24] | 
395 nM | 496 nM | 1840 nM | 1420 nM |  |  |  |  | N#Cc1ccc(-c2nc(NC(=O)c3nn(-c4ccccc4)c4c3CCCC4)n[nH]2)cc1 [Compound 30] | 
254 nM | 280 nM | 981 nM | 793 nM |  |  |  |  | O=C(Nc1n[nH]c(C2CC2)n1)c1nn(-c2cccc(F)c2)c2c1CCCC2 [Compound 28] | 
835 nM | 1040 nM | 1340 nM | 1290 nM |  |  |  |  | Cn1nc(C(=O)Nc2n[nH]c(-c3ccccc3Cl)n2)cc1C1CC1 [Compound 14] | 
593 nM | 630 nM | 715 nM | 699 nM |  |  |  |  | Cn1nc(C(=O)Nc2n[nH]c(-c3ccccc3F)n2)cc1C1CC1 [Compound 13] | 
1130 nM | 1160 nM | 11300 nM | 6160 nM |  |  |  |  | Cc1nc(NC(=O)c2cc(C(=O)OC(C)(C)C)n(-c3ccccc3)n2)n[nH]1 [Compound 10] | 
 |  |  |  |  |  |  |  | COc1cc(OCc2csc(-c3ccc(C(=O)N(C)C)cc3)n2)c2cc(-c3cn4nc(OC)sc4n3)oc2c1 [BMS-986141] | safe and well tolerated
2790 nM | 2210 nM |  |  |  |  |  |  | Cc1nc(NC(=O)c2cc(-c3ccccc3)[nH]n2)n[nH]1 [Compound 8] | 
182 nM | 228 nM | 354 nM | 351 nM |  |  |  |  | O=C(Nc1n[nH]c(C2CC2)n1)c1nn(-c2ccccc2)c2c1CCCC2 [Compound 26] | 

From article PMC11020070, “Discovery of Protease-Activated Receptor 4 (PAR4)-Tethered Ligand Antagonists Using Ultralarge Virtual Screening” (ACS Pharmacology & Translational Science, 2024)
